Data on 29 molecules can be found in US20240158412A1 (Faxian Therapeutics, LLC, priority 2021, published 2024).

Molecules are shown by their SMILES. pIC50: −log10 of the molar value. Bounds are passed on as bounds.
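Further: fluorescence intensity readout of USP7 enzymatic activity, reaction incubated 90 min at room temperature.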

For this assay, the target named is USP7 (Homo sapiens, UniProt Q93009). The assay can be described thus: biochemical.
Chain of USP7 (Q93009 whole entry): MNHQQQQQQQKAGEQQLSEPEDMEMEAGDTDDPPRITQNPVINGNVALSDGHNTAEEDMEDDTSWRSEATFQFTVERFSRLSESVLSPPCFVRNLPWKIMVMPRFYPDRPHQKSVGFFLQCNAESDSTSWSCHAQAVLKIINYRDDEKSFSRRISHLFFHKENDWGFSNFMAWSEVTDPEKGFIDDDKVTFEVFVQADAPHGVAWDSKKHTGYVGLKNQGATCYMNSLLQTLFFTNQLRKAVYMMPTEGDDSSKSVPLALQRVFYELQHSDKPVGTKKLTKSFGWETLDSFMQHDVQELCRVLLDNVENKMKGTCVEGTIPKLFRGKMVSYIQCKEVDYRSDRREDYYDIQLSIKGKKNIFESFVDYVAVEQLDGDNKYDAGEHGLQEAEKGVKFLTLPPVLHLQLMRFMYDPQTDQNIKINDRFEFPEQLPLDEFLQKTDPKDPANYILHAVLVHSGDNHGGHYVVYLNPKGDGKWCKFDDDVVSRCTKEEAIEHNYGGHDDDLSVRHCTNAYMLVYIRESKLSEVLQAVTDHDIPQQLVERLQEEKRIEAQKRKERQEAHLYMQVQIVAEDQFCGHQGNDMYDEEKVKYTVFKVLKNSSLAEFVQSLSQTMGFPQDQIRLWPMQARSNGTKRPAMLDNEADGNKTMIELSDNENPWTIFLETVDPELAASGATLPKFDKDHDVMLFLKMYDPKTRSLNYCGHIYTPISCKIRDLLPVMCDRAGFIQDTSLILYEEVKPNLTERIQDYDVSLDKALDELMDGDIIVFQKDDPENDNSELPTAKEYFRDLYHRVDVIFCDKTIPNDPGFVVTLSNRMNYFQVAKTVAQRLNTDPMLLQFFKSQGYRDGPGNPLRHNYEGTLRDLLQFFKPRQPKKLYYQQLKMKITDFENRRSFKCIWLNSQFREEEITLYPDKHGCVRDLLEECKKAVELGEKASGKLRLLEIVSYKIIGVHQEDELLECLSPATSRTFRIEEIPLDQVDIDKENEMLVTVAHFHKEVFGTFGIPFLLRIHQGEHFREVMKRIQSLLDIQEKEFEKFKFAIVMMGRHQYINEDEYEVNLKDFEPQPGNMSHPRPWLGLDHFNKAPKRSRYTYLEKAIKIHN
For the molecule `O=C1CCC(=O)N1Cc1cc2nccc(-c3cc(Cl)cc4c3N([C@@H]3CCNC3)CC3CC43)c2s1` (single isomer, unassigned) [Example 113b], the pIC50 was 7.00 to 8.00.
Regarding `C[C@]1(CO)C[C@H](N2C(=O)COc3cc(C#N)cc(-c4ccnc5cc(Cn6ncc(C7(C(F)(F)F)CC7)cc6=O)sc45)c32)CN1` [Example 226, 4-[(3S,5R)-5-(hydroxymethyl)-5-methyl-pyrrolidin-3-yl]-3-oxo-5-[2-[[6-oxo-4-[1-(trifluoromethyl)cyclopropyl]pyridazin-1-yl]methyl]thieno[3,2-b]pyridin-7-yl]-1,4-benzoxazine-7-carbonitrile], the pIC50 was above 8.00.
The molecule `CN1CCC(N2CCCc3cc(Cl)cc(-c4ccnc5cc(CN6C(=O)CCC6=O)sc45)c32)CC1` [Example 46, 1-[[7-[6-chloro-1-(1-methyl-4-piperidyl)-3,4-dihydro-2H-quinolin-8-yl]thieno[3,2-b]pyridin-2-yl]methyl]pyrrolidine-2,5-dione] had a pIC50 of 7.00 to 8.00.
For the molecule `O=C1CCC(=O)N1Cc1cc2nccc(-c3cc(Cl)cc4c3N([C@H]3CNC[C@@H]3F)CCC4)c2s1` (single isomer, unassigned) [Example 96a], the pIC50 was above 8.00.
The molecule `O=C1CCC(=O)N1Cc1sc2c(-c3cc(Cl)cc4c3N(C3CCNC3)CCC4)ccnc2c1F` (single isomer, unassigned) [Example 108a] showed a pIC50 above 8.00.
As for `O=C1CCC(=O)N1Cc1cc2nccc(-c3cc(Cl)cc4c3N(C3CNC3)C[C@H]3C[C@@H]43)c2s1` (single isomer, unassigned) [Example 43b], the figure is 7.00 to 8.00; as for `N#Cc1cc2c(c(-c3ccnc4cc(CN5C(=O)C6CC6C5=O)sc34)c1)N([C@@H]1CN[C@@H](CO)C1)CCO2` (stereo partly drawn) [Example 215, 5-(2-((2,4-dioxo-3-azabicyclo[3.1.0]hexan-3-yl)methyl)thieno[3,2-b]pyridin-7-yl)-4-((3S,5R)-5-(hydroxymethyl)pyrrolidin-3-yl)-3,4-dihydro-2H-benzo[b][1,4]oxazine-7-carbonitrile], above 8.00; as for `CN1CCC(=O)N(Cc2cc3nccc(-c4cc(Cl)cc5c4N([C@H]4CCNC4)CCC5)c3s2)C1=O` [Example 76, (S)-3-((7-(6-chloro-1-(pyrrolidin-3-yl)-1,2,3,4-tetrahydroquinolin-8-yl)thieno[3,2-b]pyridin-2-yl)methyl)-1-methyldihydropyrimidine-2,4(1H,3H)-dione], above 8.00.
To `Cc1cnn(Cc2cc3nccc(-c4cc(C#N)cc5c4N(C4CNC6(CCC6)C4)CCC5)c3s2)c(=O)c1` (single isomer, unassigned) [Example 164b] belongs 6.00 to 7.00.
To `O=C1CCC(=O)N1Cc1cc2nccc(-c3cc(Cl)cc4c3N([C@@H]3CNC5(CCC5)C3)C[C@H]3C[C@@H]43)c2s1` [Example 165c, 1-((7-((1aS,7bR)-6-chloro-3-((S)-5-azaspiro[3.4]octan-7-yl)-1a,2,3,7b-tetrahydro-1H-cyclopropa[c]quinolin-4-yl)thieno[3,2-b]pyridin-2-yl)methyl)pyrrolidine-2,5-dione] belongs above 8.00; to `C[C@H]1CCc2cc(Cl)cc(-c3ccnc4cc(CN5C(=O)CCC5=O)sc34)c2N1[C@@H]1CCNC1` (single isomer, unassigned) [Example 44a], 7.00 to 8.00.
With `O=c1n(Cc2cc3nccc(-c4cc(Cl)cc5c4N([C@H]4CCNC4)CCC5)c3s2)nc2n1CCC2` [Example 68, (S)-2-((7-(6-chloro-1-(pyrrolidin-3-yl)-1,2,3,4-tetrahydroquinolin-8-yl)thieno[3,2-b]pyridin-2-yl)methyl)-6,7-dihydro-2H-pyrrolo[2,1-c][1,2,4]triazol-3(5H)-one], the pIC50 was above 8.00.
Molecule `O=c1ccn(CC(F)(F)F)c(=O)n1Cc1cc2nccc(-c3cc(Cl)cc4c3N([C@H]3CCNC3)CCC4)c2s1` [Example 55, (S)-3-((7-(6-chloro-1-(pyrrolidin-3-yl)-1,2,3,4-tetrahydroquinolin-8-yl)thieno[3,2-b]pyridin-2-yl)methyl)-1-(2,2,2-trifluoroethyl)pyrimidine-2,4(1H,3H)-dione] gave a pIC50 above 8.00.
As for `O=c1ccn(CC(F)(F)F)c(=O)n1Cc1cc2nccc(-c3cc(Cl)cc4c3N([C@H]3CCNC3)C[C@H]3C[C@@H]43)c2s1` [Example 114, 3-((7-((1aS,7bR)-6-chloro-3-((S)-pyrrolidin-3-yl)-1a,2,3,7b-tetrahydro-1H-cyclopropa[c]quinolin-4-yl)thieno[3,2-b]pyridin-2-yl)methyl)-1-(2,2,2-trifluoroethyl)pyrimidine-2,4(1H,3H)-dione], the figure is above 8.00; as for `C[C@]1(CO)C[C@H](N2CCCc3cc(Cl)cc(-c4cc[n+]([O-])c5cc(CN6C(=O)CCC6=O)sc45)c32)CN1` [Example 208, 7-(6-chloro-1-((3S,5R)-5-(hydroxymethyl)-5-methylpyrrolidin-3-yl)-1,2,3,4-tetrahydroquinolin-8-yl)-2-((2,5-dioxopyrrolidin-1-yl)methyl)thieno[3,2-b]pyridine 4-oxide], above 8.00.
`N#Cc1cc(-c2ccnc3cc(Cn4ncc(C5(C(F)(F)F)CC5)cc4=O)sc23)c2c(c1)[C@@H]1C[C@@H]1CN2[C@@H]1CN[C@@H](CO)C1` [Example 194a, (1aS,7bR)-3-((3S,5R)-5-(hydroxymethyl)pyrrolidin-3-yl)-4-(2-((6-oxo-4-(1-(trifluoromethyl)cyclopropyl)pyridazin-1(6H)-yl)methyl)thieno[3,2-b]pyridin-7-yl)-1a,2,3,7b-tetrahydro-1H-cyclopropa[c]quinoline-6-carbonitrile]: the pIC50 is above 8.00.
As for `C[C@@H](c1cc2nccc(-c3cc(C#N)cc4c3N([C@@H]3CCNC3)CCC4)c2s1)N1C(=O)CCC1=O` (single isomer, unassigned) [Example 112d], the figure is below 6.00.
As for `O=c1ccn(CC(F)(F)F)c(=O)n1Cc1cc2ncnc(-c3cc(Cl)cc4c3N([C@@H]3CCNC3)CCC4)c2s1` (single isomer, unassigned) [Example 90], the figure is above 8.00.
With `CN1CC[C@H](N2CCCc3cc(Cl)cc(-c4ccnc5cc(CN6C(=O)CCC6=O)sc45)c32)C1` [Example 59, (S)-1-((7-(6-chloro-1-(1-methylpyrrolidin-3-yl)-1,2,3,4-tetrahydroquinolin-8-yl)thieno[3,2-b]pyridin-2-yl)methyl)pyrrolidine-2,5-dione], the pIC50 was above 8.00.
As for `COC[C@@]1(C)C[C@H](N2CCCc3cc(Cl)cc(-c4ccnc5cc(CN6C(=O)CCC6=O)sc45)c32)CN1` [Example 200, 1-((7-(6-chloro-1-((3S,5R)-5-(methoxymethyl)-5-methylpyrrolidin-3-yl)-1,2,3,4-tetrahydroquinolin-8-yl)thieno[3,2-b]pyridin-2-yl)methyl)pyrrolidine-2,5-dione], the figure is 7.00 to 8.00.
To `Cc1cnn(Cc2cc3nccc(-c4cc(Cl)cc5c4N(C4CNC4)CCC5)c3s2)c(=O)c1` [Example 22, 2-[[7-[1-(azetidin-3-yl)-6-chloro-3,4-dihydro-2H-quinolin-8-yl]thieno[3,2-b]pyridin-2-yl]methyl]-5-methyl-pyridazin-3-one] belongs 7.00 to 8.00.
`O=c1ccn(CCOC(F)F)c(=O)n1Cc1cc2nccc(-c3cc(Cl)cc4c3N([C@H]3CCNC3)CCC4)c2s1` [Example 61, (S)-3-((7-(6-chloro-1-(pyrrolidin-3-yl)-1,2,3,4-tetrahydroquinolin-8-yl)thieno[3,2-b]pyridin-2-yl)methyl)-1-(2-(difluoromethoxy)ethyl)pyrimidine-2,4(1H,3H)-dione] gave a negative logarithm of the IC50 (pIC50) above 8.00.
With `CC(C)(C)c1cnn(Cc2cc3nccc(-c4cc(C#N)cc5c4N([C@H]4CN[C@@H](CO)C4)C[C@@H]4C[C@H]54)c3s2)c(=O)c1` (single isomer, unassigned) [Example 193a], the negative-log IC50 (pIC50) was below 6.00.
To `O=c1c2ccccc2cnn1Cc1cc2nccc(-c3cc(Cl)cc4c3N(C3CNC3)CCC4)c2s1` [Example 21, 2-[[7-[1-(azetidin-3-yl)-6-chloro-3,4-dihydro-2H-quinolin-8-yl]thieno[3,2-b]pyridin-2-yl]methyl]phthalazin-1-one] belongs 6.00 to 7.00; to `Cc1cnn(Cc2cc3nccc(-c4cc(C#N)cc5c4N([C@@H]4CN(C)C(C)(C)C4)CCC5)c3s2)c(=O)c1` [Example 122, (S)-8-(2-((4-methyl-6-oxopyridazin-1(6H)-yl)methyl)thieno[3,2-b]pyridin-7-yl)-1-(1,5,5-trimethylpyrrolidin-3-yl)-1,2,3,4-tetrahydroquinoline-6-carbonitrile], above 8.00; to `CC(C)CN1CC[C@H](N2CCCc3cc(Cl)cc(-c4ccnc5cc(CN6C(=O)CCC6=O)sc45)c32)C1` [Example 102, (S)-1-((7-(6-chloro-1-(1-isobutylpyrrolidin-3-yl)-1,2,3,4-tetrahydroquinolin-8-yl)thieno[3,2-b]pyridin-2-yl)methyl)pyrrolidine-2,5-dione], 7.00 to 8.00.
To `CO[C@H]1C[C@@H](N2CC[C@H](N3CCCc4cc(C#N)cc(-c5ccnc6cc(Cn7c(=O)ccn(CC(F)(F)F)c7=O)sc56)c43)C2)C1` [Example 85, 8-(2-((2,6-dioxo-3-(2,2,2-trifluoroethyl)-2,3-dihydropyrimidin-1(6H)-yl)methyl)thieno[3,2-b]pyridin-7-yl)-1-((S)-1-((1s,3R)-3-methoxycyclobutyl)pyrrolidin-3-yl)-1,2,3,4-tetrahydroquinoline-6-carbonitrile] belongs 7.00 to 8.00; to `O=C1CCC(=O)N1Cc1cc2nccc(-c3cc(Cl)cc4c3N(C3CN(CC(F)F)C3)CCC4)c2s1` [Example 11, 1-((7-(6-chloro-1-(1-(2,2-difluoroethyl)azetidin-3-yl)-1,2,3,4-tetrahydroquinolin-8-yl)thieno[3,2-b]pyridin-2-yl)methyl)pyrrolidine-2,5-dione], 6.00 to 7.00.
As for `O=c1ccn(CC(F)F)c(=O)n1Cc1cc2nccc(-c3cc(Cl)cc4c3N(C3CNC3)CCC4)c2s1` [Example 23, 3-[[7-[1-(azetidin-3-yl)-6-chloro-3,4-dihydro-2H-quinolin-8-yl]thieno[3,2-b]pyridin-2-yl]methyl]-1-(2,2-difluoroethyl)pyrimidine-2,4-dione], the figure is above 8.00.

As a reminder, the pIC50 is the negative decadic logarithm of the IC50, by convention in mol/L. A high value points to a low IC50.
